# Results from patent US20020115669A1 (published 2002).
smiles,measurement,value
CC(=O)NC[C@H]1CN(c2ccc(/C=C(\Br)c3ccc(C(C)=O)s3)c(F)c2)C(=O)O1,melting point,187 to 190 °C (dec.)
